Values joined by “and” are separate entries in the source; they are usually repeats but may differ in a detail not shown here. Identical values can stand only once.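 Test compounds were applied to cells in 96-well plates for 48 hours at 5 doses. Here, GI50 denotes the concentration required for 50% inhibition of growth. TGI: total growth inhibition.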
Columns and labels:
Assay in all cases: DTP human tumour cell line panel, 48 h
SK-MEL-28 melanoma = test system: SK-MEL-28 melanoma
786-0 renal = test system: 786-0 renal
UO-31 renal = test system: UO-31 renal
SN12C renal = test system: SN12C renal
EKVX NSCLC = test system: EKVX NSCLC
SR leukemia = test system: SR leukemia
MALME-3M melanoma = test system: MALME-3M melanoma
SF-539 CNS = test system: SF-539 CNS
LOX IMVI melanoma = test system: LOX IMVI melanoma
M14 melanoma = test system: M14 melanoma

Row | Structure (SMILES) | GI50 (SK-MEL-28 melanoma) [µM] | TGI (SK-MEL-28 melanoma) [µM] | GI50 (786-0 renal) [µM] | TGI (786-0 renal) [µM] | GI50 (UO-31 renal) [µM] | TGI (UO-31 renal) [µM] | GI50 (SN12C renal) [µM] | TGI (SN12C renal) [µM] | GI50 (EKVX NSCLC) [µM] | TGI (EKVX NSCLC) [µM] | GI50 (SR leukemia) [µM] | TGI (SR leukemia) [µM] | GI50 (MALME-3M melanoma) [nM] | TGI (MALME-3M melanoma) [µM] | GI50 (SF-539 CNS) [nM] | TGI (SF-539 CNS) | GI50 (LOX IMVI melanoma) [µM] | TGI (LOX IMVI melanoma) [µM] | GI50 (M14 melanoma) [µM] | TGI (M14 melanoma) [µM]
1 | COc1cc(Nc2nc(N[C@H]3CCCC[C@@H]3N)nc3cc[nH]c(=O)c23)cc(OC)c1 | 1.86 | 6.44 | 3.31 | 18.8 | 6.72 | 21.5 | 2.43 | 16.9 | 1.08 | 12.2 | 0.8 | 3.91 | 2200 | 22.5 | 454 | 2.64 µM | 0.468 | 1.77 | 0.379 | 2.16
2 | CN(C)c1ccc2cc(-c3ccccc3F)c(N)nc2c1 | 2.57 | 19.6 | 2.49 | 14.3 | 3.16 | 16.5 | 4.55 | 19.2 | 6.57 | 26.7 | 0.491 | 4.99 | 1710 | 15.9 | 2100 | 7.99 µM | 2.69 | 15.1 | 0.448 | 4.5
3 | CC1OC2CC(=O)OC2C2=C1C(=O)c1c(O)c3c(c(O)c1C2=O)C1CC(O)C3(O)C(C)O1 (centres undefined) | 1.21 | 2.74 | 0.635 | 1.78 | 0.3 | 1.53 | 0.211 | 0.539 | 0.534 | 1.8 | 0.344 | 5.86 | 142 | 0.385 | 458 | 1.37 µM | 0.104 | 0.476 | 0.242 | 0.662
4 | CN=S(=O)(c1ccccc1)c1ccccc1 | – | > 100 | – | > 100 | – | > 100 | – | > 100 | – | > 100 | – | > 100 | – | > 100 | – | > 100 µM | – | > 100 | – | > 100
5 | CCC12CCCC(=O)N1C(CO)C(c1ccccc1)O2 (centres undefined) | – | > 100 | – | > 100 | – | – | – | > 100 | – | > 100 | – | > 100 | – | > 100 | – | > 100 µM | – | > 100 | – | –
6 | CC1C(=O)C(C)C(c2ccccc2)N(N=O)C1c1ccccc1 (centres undefined) | – | > 834 | – | 359 | 268 | > 829 | > 65.2 | 981 | > 1000 | > 1000 | – | > 1000 | – | > 516 | > 50300 | > 79 µM and 310 µM | – | > 783 | – | > 581
7 | CC(=O)NC1=C(C)C(=O)c2c(nc3n2CCC3O)C1=N (centres undefined) | – | 31 | – | 40.4 | – | 46.6 | – | 19 | – | 37 | – | > 100 | – | 18.8 | – | 13.9 µM | – | 19.2 | – | –
8 | CC(=O)Nc1ccc2c(c1)oc(=O)c1cc(NC(C)=O)ccc12 | > 100 | > 100 | > 100 | > 100 | > 100 | > 100 | 29.6 | > 100 | > 100 | > 100 | 8.52 | 77.4 | 35600 | > 100 | > 100000 | > 100 µM | 75.6 | > 100 | 91.6 | > 100
9 | C[C@@H]1CN(CC(=O)N2CC(C)(C)c3nc(CO)c(Cc4ccc(F)cc4)cc32)[C@@H](CN2CCOC[C@H]2C)CN1 | 18.6 | 37.5 | 47.4 | > 100 | > 100 | > 100 | 78.2 | > 100 | 96.7 | > 100 | 18.9 | 73.3 | 16000 | 31.1 | 6850 | 23.6 µM | 17.5 | 33.1 | 18.6 | 37.9
10 | CC1=C(O)C(=O)C2C(=O)C1C(C)C2c1ccc(Cl)cc1 (centres undefined) | – | > 100 | – | > 100 | – | > 100 | – | – | – | > 100 | – | > 100 | – | > 100 | – | > 100 µM | – | > 100 | – | > 100
11 | Fc1cccc(COc2ccc(Nc3ncnc4cc(-c5ccc[nH]5)sc34)cc2Cl)c1 | 7.96 | > 25 | 1.22 | 5.32 | 0.245 | 2.52 | 1.42 | > 25 | 0.323 | 3.75 | 13.6 | > 25 | 2650 | 14.6 | 931 | 4.81 µM | 8.04 | > 22.4 | 8.32 | > 23.4
12 | O=C1C(Cl)=C(Nc2cccc(O)c2)C(=O)N1c1cc(Cl)c(Cl)cc1Cl | 18.5 | 36.3 | 16.7 | 32.7 | 13.5 | 26.4 | 15.6 | 29.4 | 23 | 73.7 | 10.3 | 59.7 | 7290 | 23.4 | 14900 | 34.3 µM | 13 | 28 | 20.8 | 40.9
13 | CCCCCCCCCCCCCCCC(=O)OCC1OC(n2c(O)c(N=NC(N)=S)c3ccc([N+](=O)[O-])cc32)C(OC(C)=O)C1OC(C)=O (centres undefined) | – | > 100 | – | > 100 | – | – | – | > 100 | – | > 100 | – | > 100 | – | > 100 | – | > 100 µM | – | > 100 | – | > 100
14 | CC(C)C1CC(O)O[C@@H]([C@@H](C)[C@H]2CC(=O)[C@@H]3[C@@H]4[C@@H](O)[C@H](O)[C@H]5[C@@H](O)[C@H](O)CC[C@]5(C)[C@H]4CC[C@]23C)C1 (some centres undefined) | – | > 100 | – | > 100 | – | > 100 | – | > 100 | – | > 100 | – | > 100 | – | > 100 | – | > 100 µM | – | > 100 | – | > 100
15 | CCCCCCCCCc1cc(=O)c2ccc(O)cc2o1 | – | > 100 | – | > 100 | – | > 100 | – | > 100 | – | > 100 | – | > 100 | – | > 100 | – | > 100 µM | – | > 100 | – | > 100
16 | CC(C)CC1=[N+]=C(NC#N)N=C(CCC(=O)Nc2ccccc2[N+](=O)[O-])C1 | – | > 100 | – | > 100 | – | > 100 | – | > 100 | – | > 100 | – | > 100 | – | > 100 | – | > 100 µM | – | > 100 | – | > 100

From PubChem BioAssay (NCI)
